The results in this text go back to patent US20230265151A1, “GIP/GLP1 CO-AGONIST COMPOUNDS” (priority 2020, published 2023).

One experiment addresses T1, hGIPR (Homo sapiens, UniProt P48546).
T1 construct: expressed in transfected cells
T1 sequence (P48546 22-466): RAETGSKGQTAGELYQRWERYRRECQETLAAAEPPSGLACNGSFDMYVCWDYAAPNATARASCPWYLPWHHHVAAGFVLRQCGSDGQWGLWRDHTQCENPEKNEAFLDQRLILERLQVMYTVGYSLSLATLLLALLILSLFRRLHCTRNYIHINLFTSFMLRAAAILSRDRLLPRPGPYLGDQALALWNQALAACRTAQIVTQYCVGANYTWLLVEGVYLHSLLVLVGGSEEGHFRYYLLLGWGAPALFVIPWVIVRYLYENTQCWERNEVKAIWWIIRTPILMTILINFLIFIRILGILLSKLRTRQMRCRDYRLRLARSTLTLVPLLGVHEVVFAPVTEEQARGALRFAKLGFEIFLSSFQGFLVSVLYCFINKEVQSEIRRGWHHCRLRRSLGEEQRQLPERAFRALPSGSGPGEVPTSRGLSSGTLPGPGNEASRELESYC
Put plainly: Functional cAMP formation (HTRF) in HEK-293 clonal cells expressing hGIPR, 0.1% bovine casein, without or with 1.0% human serum albumin. It is filed as cell-based. The following applies: for EC50: cAMP, 0.1% bovine casein (no human serum albumin), geometric mean. An outline of the steps: (§1)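 Cells were stimulated with peptide for 30 min at 37° C, then intracellular cAMP was measured by competitive HTRF (665/620 nm ratio) and converted to nM using a cAMP standard curve. Relative EC50 and Emax came from four-parameter logistic fits of percent maximal response against peptide concentration.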
(In general: cAMP levels reflect the balance of adenylyl cyclase and phosphodiesterase activity.)

For a further experiment, the target named is T2, hGCGR (Homo sapiens, UniProt P47871).
T2 construct: expressed in transfected cells
Put plainly: Functional cAMP formation (HTRF) in HEK-293 clonal cells expressing hGCGR, 0.1% bovine casein, without or with 1.0% human serum albumin. It is filed as cell-based. Summed up:
as §1

A further experiment concerns the target hGLP-1R (Homo sapiens, UniProt P43220). Put plainly: Functional cAMP formation (HTRF) in HEK-293 clonal cells expressing hGLP-1R, 0.1% bovine casein, without or with 1.0% human serum albumin. Further details: expressed in transfected cells. The note with it: for Emax: percent of maximal response to GLP-1(7-36)NH2; for EC50: cAMP, 0.1% bovine casein (no human serum albumin), geometric mean. It is filed as cell-based. An outline of the steps:
as §1

In experiment [1] the target is T3, human GIP receptor (hGIPR) (Homo sapiens, UniProt P48546).
T3 construct: expressed in transfected cells; crude membranes
T3 sequence (P48546 22-466): T1 sequence (P48546 22-466)
Put plainly: [125I]-GIP binding, SPA with membranes of CHO cells expressing hGIPR.

Where [2] appears, read: human GIPR, geometric mean (SEM, n), read-out: Binding Affinity Ki, nM (SEM, n) hGIPR.
Setting [3] is: HEK293, cAMP, 37° C., 0.1% bovine casein and 1.0% human serum albumin, percent of maximal response to GIP(1-42)NH2, read-out: hGIPR Emax, % ± SEM.
Where [4] appears, read: 37° C., read-out: hGIPR EC50, nM (SEM, n).
Where [5] appears, read: cAMP, 37° C., 0.1% bovine casein (no human serum albumin), geometric mean, read-out: hGCGR EC50, nM (SEM, n).
Setting [6] is: cAMP, 37° C., 0.1% bovine casein and 1.0% human serum albumin, geometric mean (SEM, n), read-out: hGCGR EC50, nM (SEM, n).
Setting [7] is: HEK293, cAMP, 37° C., 0.1% bovine casein and 1.0% human serum albumin, read-out: hGLP-1R Emax, % ± SEM.
[8] abbreviates: 37° C., read-out: hGLP-1R EC50, nM (SEM, n).

Molecules are shown by their SMILES. Like-named read-outs stand apart in the source and are kept apart here.

Sequence of hGLP-1R (P43220 24-463): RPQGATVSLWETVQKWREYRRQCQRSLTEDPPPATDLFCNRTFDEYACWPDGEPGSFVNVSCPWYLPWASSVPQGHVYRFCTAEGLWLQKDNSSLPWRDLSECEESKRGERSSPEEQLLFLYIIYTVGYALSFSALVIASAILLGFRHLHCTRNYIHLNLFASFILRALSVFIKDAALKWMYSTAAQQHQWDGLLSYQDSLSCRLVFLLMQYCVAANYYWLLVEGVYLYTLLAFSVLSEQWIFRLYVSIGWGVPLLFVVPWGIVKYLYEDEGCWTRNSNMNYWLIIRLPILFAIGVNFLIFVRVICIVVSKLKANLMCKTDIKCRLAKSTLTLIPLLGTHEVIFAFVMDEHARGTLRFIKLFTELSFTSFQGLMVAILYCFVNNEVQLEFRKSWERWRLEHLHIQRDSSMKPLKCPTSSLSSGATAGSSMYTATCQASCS
T2 sequence (P47871 26-477): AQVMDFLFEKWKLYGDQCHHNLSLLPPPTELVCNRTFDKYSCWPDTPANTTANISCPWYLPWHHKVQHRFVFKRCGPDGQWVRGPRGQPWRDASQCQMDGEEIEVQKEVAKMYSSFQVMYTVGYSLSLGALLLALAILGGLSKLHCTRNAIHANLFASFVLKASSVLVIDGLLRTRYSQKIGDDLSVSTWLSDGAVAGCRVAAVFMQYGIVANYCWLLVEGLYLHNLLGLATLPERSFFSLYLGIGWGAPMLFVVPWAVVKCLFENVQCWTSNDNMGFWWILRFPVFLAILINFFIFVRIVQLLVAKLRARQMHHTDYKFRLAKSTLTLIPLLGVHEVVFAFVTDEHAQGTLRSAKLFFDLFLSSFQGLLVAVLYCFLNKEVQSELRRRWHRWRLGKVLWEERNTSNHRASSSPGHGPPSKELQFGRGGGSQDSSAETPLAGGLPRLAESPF

Usually Emax stands for the maximal effect, on the per cent scale that the assay sets. One may read the EC50 as the midpoint of the concentration-response curve. Broadly, the Ki is a dissociation constant, usually derived from enzyme kinetics or from competition with a known ligand. On to `CC[C@H](C)[C@H](NC(=O)[C@H](CC(C)C)NC(=O)[C@](C)(Cc1ccc(O)cc1)NC(=O)[C@H](CCCCNC(=O)CCCCCNC(=O)COCCOCCNC(=O)CC[C@H](NC(=O)CCCCCCCCCOc1ccc(C(=O)O)cc1)C(=O)O)NC(=O)[C@@H](NC(=O)[C@H](Cc1ccccc1)NC(=O)[C@H](CCCN)NC(=O)C(C)(C)NC(=O)[C@H](CCC(N)=O)NC(=O)[C@H](C)NC(=O)[C@H](CCC(N)=O)NC(=O)[C@H](CCCN)NC(=O)[C@H](CC(=O)O)NC(=O)[C@H](CC(C)C)NC(=O)[C@](C)(CC(C)C)NC(=O)[C@@H](NC(=O)C(C)(C)NC(=O)[C@H](Cc1ccncc1)NC(=O)[C@H](CC(=O)O)NC(=O)[C@H](CO)NC(=O)[C@@H](NC(=O)[C@](C)(Cc1ccccc1F)NC(=O)[C@@H](NC(=O)CNC(=O)[C@H](CCC(=O)O)NC(=O)C(C)(C)NC(=O)[C@@H](N)Cc1ccc(O)cc1)[C@@H](C)O)[C@@H](C)O)[C@@H](C)CC)[C@@H](C)CC)C(=O)N[C@@H](CCCCNC(=O)CCCCCNC(=O)COCCOCCNC(=O)CC[C@H](NC(=O)CCCCCCCCCOc1ccc(C(=O)O)cc1)C(=O)O)C(=O)NCC(=O)NCC(=O)N1CCC[C@H]1C(=O)N[C@@H](CO)C(=O)N[C@@H](CO)C(=O)NCC(=O)N[C@@H](C)C(=O)N1CCC[C@H]1C(=O)N1CCC[C@H]1C(=O)N1CCC[C@H]1C(=O)N[C@@H](CO)C(N)=O` [Example 455], for which the Emax is 91.8% on hGIPR (HEK293, read-out: hGIPR Emax, % ± SEM, cAMP, 37° C., 0.1% bovine casein and 1.0% human serum albumin, percent of maximal response to GIP(1-42)NH2); 117% at hGLP-1R (HEK293, read-out: hGLP-1R Emax, % ± SEM, cAMP, 37° C., 0.1% bovine casein, arithmetic mean). In addition, the EC50 at hGIPR (hGIPR EC50, nM (SEM, n), 37° C.) was 0.0146 nM; at hGCGR (hGCGR EC50, nM (SEM, n), cAMP, 37° C., 0.1% bovine casein (no human serum albumin), geometric mean), > 9950 nM; at hGCGR (hGCGR EC50, nM (SEM, n), cAMP, 37° C., 0.1% bovine casein and 1.0% human serum albumin, geometric mean (SEM, n)), > 9950 nM; on hGLP-1R (hGLP-1R EC50, nM (SEM, n), 37° C.) it was 0.219 nM. Also, the inhibition constant Ki in experiment [1] is 0.0143 nM.

Regarding `CC[C@H](C)[C@H](NC(=O)[C@H](CC(C)C)NC(=O)[C@](C)(Cc1ccc(O)cc1)NC(=O)[C@@H](CCC(=O)O)NC(=O)[C@@H](NC(=O)[C@H](Cc1ccccc1)NC(=O)[C@H](CCC(=O)O)NC(=O)C(C)(C)NC(=O)[C@H](CCC(N)=O)NC(=O)[C@H](C)NC(=O)[C@H](CCCCNC(=O)COCCOCCNC(=O)COCCOCCNC(=O)CC[C@H](NC(=O)CCCCCCCCCCCCC(=O)O)C(=O)O)NC(=O)[C@H](CCCN)NC(=O)[C@H](CC(=O)O)NC(=O)[C@H](CC(C)C)NC(=O)[C@](C)(CC(C)C)NC(=O)[C@@H](NC(=O)[C@H](CO)NC(=O)[C@H](CCc1ccc(O)cc1)NC(=O)[C@H](CC(=O)O)NC(=O)[C@H](CO)NC(=O)[C@@H](NC(=O)[C@](C)(Cc1ccccc1F)NC(=O)[C@@H](NC(=O)CNC(=O)[C@H](CCC(=O)O)NC(=O)C(C)(C)NC(=O)[C@@H](N)Cc1ccc(O)cc1)[C@@H](C)O)[C@@H](C)O)[C@@H](C)CC)[C@@H](C)CC)C(=O)N[C@@H](CCC(=O)O)C(=O)NCC(=O)NCC(=O)N[C@@H](CCCCNC(=O)COCCOCCNC(=O)COCCOCCNC(=O)CC[C@H](NC(=O)CCCCCCCCCCCCC(=O)O)C(=O)O)C(=O)N[C@@H](CO)C(=O)N[C@@H](CO)C(=O)NCC(=O)N[C@@H](C)C(=O)N1CCC[C@H]1C(=O)N1CCC[C@H]1C(=O)N1CCC[C@H]1C(=O)N[C@@H](CO)C(N)=O` [Example 59], the maximal effect (Emax) at hGIPR (HEK293, 0.1% bovine casein and 1.0% human serum albumin, 37° C., percent of maximal response to GIP(1-42)NH2, read-out: hGIPR Emax, % ± SEM) is 90.3 ± 3.64%; at hGIPR (HEK293, percent of maximal response to GIP(1-42)NH2, 37° C., 0.1% bovine casein, arithmetic mean, read-out: hGIPR Emax, % ± SEM), 89.2 ± 4.62%. In addition, the EC50 on hGIPR (incubated at 37° C., read-out: hGIPR EC50, nM (SEM, n)) was 0.024 nM; at hGCGR (0.1% bovine casein and 1.0% human serum albumin, 37° C., geometric mean, read-out: hGCGR EC50, nM (SEM, n)), > 9950 nM; on hGCGR (cAMP, incubated at 37° C., 0.1% bovine casein (no human serum albumin), geometric mean, read-out: hGCGR EC50, nM (SEM, n)), > 9950 nM; at hGLP-1R (incubated at 37° C., read-out: hGLP-1R EC50, nM (SEM, n)), 0.202 nM. Further, in experiment [1] (setting [2]), the inhibitory constant (Ki) turned out to be 0.171 nM.

For the compound `CC[C@H](C)[C@H](NC(=O)[C@H](CC(C)C)NC(=O)[C@](C)(Cc1ccc(O)cc1)NC(=O)[C@@H](CCC(=O)O)NC(=O)[C@@H](NC(=O)[C@H](Cc1ccccc1)NC(=O)[C@H](CCC(=O)O)NC(=O)C(C)(C)NC(=O)[C@H](CCC(N)=O)NC(=O)[C@H](C)NC(=O)[C@H](CCCCNC(=O)COCCOCCNC(=O)CCCCCCCNC(=O)CCCCCCCCCCCCC(=O)O)NC(=O)[C@H](CCCN)NC(=O)[C@H](CC(=O)O)NC(=O)[C@H](CC(C)C)NC(=O)[C@](C)(CC(C)C)NC(=O)[C@@H](NC(=O)C(C)(C)NC(=O)[C@H](Cc1ccncc1)NC(=O)[C@H](CC(=O)O)NC(=O)[C@H](CO)NC(=O)[C@@H](NC(=O)[C@](C)(Cc1ccccc1F)NC(=O)[C@@H](NC(=O)CNC(=O)[C@H](CCC(=O)O)NC(=O)C(C)(C)NC(=O)[C@@H](N)Cc1ccc(O)cc1)[C@@H](C)O)[C@@H](C)O)[C@@H](C)CC)[C@@H](C)CC)C(=O)N[C@@H](CCCCNC(=O)COCCOCCNC(=O)CCCCCCCNC(=O)CCCCCCCCCCCCC(=O)O)C(=O)NCC(=O)NCC(=O)N1CCC[C@H]1C(=O)N[C@@H](CO)C(=O)N[C@@H](CO)C(=O)NCC(=O)N[C@@H](C)C(=O)N1CCC[C@H]1C(=O)N1CCC[C@H]1C(=O)N1CCC[C@H]1C(=O)N[C@@H](CO)C(N)=O` [Example 465], the Emax at hGIPR (setting [3]) is 94.4%; at hGIPR (HEK293, cAMP, 37° C., 0.1% bovine casein, percent of maximal response to GIP(1-42)NH2, arithmetic mean, read-out: hGIPR Emax, % ± SEM) it was 94.9%; on hGLP-1R (setting [7]), 93.3%. Besides, the EC50 on hGIPR (setting [4]) is 0.0174 nM; at hGCGR (setting [5]), > 9950 nM; at hGCGR (setting [6]), > 9950 nM; at hGLP-1R (setting [8]), 0.413 nM. In experiment [1] (setting [2]), the Ki amounted to 0.0464 nM.

As for `CCCCCCCCCCCC(=O)N[C@@H](CCC(=O)NCCOCCOCC(=O)NCCOCCOCC(=O)NCCCC[C@H](NC(=O)[C@H](CCCN)NC(=O)[C@H](CC(=O)O)NC(=O)[C@H](CC(C)C)NC(=O)[C@](C)(CC(C)C)NC(=O)[C@@H](NC(=O)C(C)(C)NC(=O)[C@H](Cc1ccncc1)NC(=O)[C@H](CC(=O)O)NC(=O)[C@H](CO)NC(=O)[C@@H](NC(=O)[C@](C)(Cc1ccccc1F)NC(=O)[C@@H](NC(=O)CNC(=O)[C@H](CCC(=O)O)NC(=O)C(C)(C)NC(=O)[C@@H](N)Cc1ccc(O)cc1)[C@@H](C)O)[C@@H](C)O)[C@@H](C)CC)C(=O)N[C@@H](C)C(=O)N[C@@H](CCC(N)=O)C(=O)NC(C)(C)C(=O)N[C@@H](CCC(=O)O)C(=O)N[C@@H](Cc1ccccc1)C(=O)N[C@H](C(=O)N[C@H](CCC(=O)O)C(=O)N[C@@](C)(Cc1ccc(O)cc1)C(=O)N[C@@H](CC(C)C)C(=O)N[C@H](C(=O)N[C@@H](CCCCNC(=O)COCCOCCNC(=O)COCCOCCNC(=O)CC[C@H](NC(=O)CCCCCCCCCCC)C(=O)O)C(=O)NCC(=O)NCC(=O)N1CCC[C@H]1C(=O)N[C@@H](CO)C(=O)N[C@@H](CO)C(=O)NCC(=O)N[C@@H](C)C(=O)N1CCC[C@H]1C(=O)N1CCC[C@H]1C(=O)N1CCC[C@H]1C(=O)N[C@@H](CO)C(N)=O)[C@@H](C)CC)[C@@H](C)CC)C(=O)O` [Example 334], the values for the Emax at hGIPR (setting [3]) and at hGLP-1R (setting [7]) were 89% and 105%, respectively. For the same compound, the EC50 on hGIPR (setting [4]) was 0.00987 nM; on hGCGR (setting [5]), > 9950 nM; at hGCGR (setting [6]), > 9950 nM; at hGLP-1R (setting [8]), 0.131 nM. For the same compound, the Ki in experiment [1] (setting [2]) came to 0.0195 nM.
